Among the data in PubChem BioAssay (NCI) are TGI values, retold here.

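Following 48 hours of exposure in 96-well plates, responses at five concentrations were used to interpolate endpoints linearly. The concentration for full growth arrest is given as TGI.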

What all share (experiment): NCI anticancer screen, dose series, 48 h
The subject of assay [1] is HOP-62 NSCLC.
For assay [2], the system named is MDA-MB-435.
For assay [3], the system named is HT29 colon.
Assay [4] relates to HL-60(TB) leukemia.
The subject of assay [5] is SNB-19 CNS.
Assay [6] deals with RPMI-8226 leukemia.
For assay [7], the system named is CAKI-1 renal.
Assay [8] has as its system OVCAR-5 ovarian.
The subject of assay [9] is HCT-116 colon.
The subject of assay [10] is SK-OV-3 ovarian.
Assay [11] relates to HOP-92 NSCLC.
The test system of assay [12] is UO-31 renal.
The subject of assay [13] is MCF7 breast.
Assay [14] concerns SK-MEL-5 melanoma.
The test system of assay [15] is MALME-3M melanoma.
Assay [16] concerns NCI-H226 lung.
Assay [17] relates to NCI-H23 lung.
Assay [18] concerns 786-0 renal.
Assay [19] relates to OVCAR-8 ovarian.
In assay [20] the test system is T-47D breast.

With `COC1(CC[C@H](C)COC2OC(CO)C(O)C(O)C2O)O[C@H]2C[C@H]3[C@@H]4CC=C5C[C@@H](OC6OC(CO)C(O)C(OC7OC(CO)C(O)C(O)C7O)C6OC6OC(C)C(O)C(O)C6O)CC[C@]5(C)[C@H]4CC[C@]3(C)[C@H]2[C@@H]1C` (stereo not given in full), the TGI is 12.4 µM in [1]; 4.24 µM in [2]; more than 21.8 µM in assay [3]; 8.53 µM in assay [4]; 18.4 µM in [5]; 23.6 µM in assay [6]. For the same compound, the TGI in assay [7] is 10.4 µM; in assay [8], more than 32.5 µM; in assay [9], more than 32.4 µM; in [10] it was 24.5 µM; in assay [11] it was 10.1 µM; in assay [12], 4.36 µM. Besides, the TGI in [13] amounted to 37.7 µM; in [14], 16.9 µM; in assay [15], 6.11 µM; in assay [16], 18.6 µM; in assay [17], 18.9 µM; in assay [18] it was 5.29 µM. For the same compound, the results for the TGI in assay [19] and in assay [20] were 9.47 µM and 9.68 µM, respectively.
For `Cc1cc2c(cc1C)C(=O)/C(=N/Nc1ccc(F)cc1)CCO2`, the TGI in assay [1], in assay [2], in assay [3], in assay [4], in assay [5] and in assay [6] was more than 100 µM each time. The TGI in assay [7], in assay [8], in [9], in assay [10], in assay [11] and in assay [12] was more than 100 µM throughout. Also, the TGI in assay [13], in assay [14], in assay [15], in assay [16], in assay [17] and in assay [18] was more than 100 µM throughout. For the same compound, the TGI in [19] and in [20] was more than 100 µM throughout.
Turning to `NC(=O)C(Nc1ccc(Cl)cc1)c1cc2cc(Br)ccc2nc1Cl` (stereo not given), the TGI in assay [1], in assay [2], in assay [3], in assay [4], in [5] and in [6] was more than 50 µM in each case. Further, the TGI in assay [7], in [8], in [9], in [10], in [11] and in assay [12] was more than 50 µM throughout. Further, the TGI in assay [13], in assay [14], in assay [15], in assay [16], in [17] and in assay [18] was more than 50 µM in each case. Besides, the TGI in assay [19] and in assay [20] was more than 50 µM in each case.
`COc1ccc(Nc2nc3ccccc3nc2C(=O)O)cc1OC`: the TGI in [1], in [2], in [3], in [4], in assay [5] and in [6] was more than 100 µM throughout. The TGI was more than 100 µM in [7]; more than 100 µM in assay [8]; more than 100 µM in assay [9]; more than 100 µM in [10]; more than 100 µM in assay [11]; 97.8 µM in assay [12]. The TGI in [13], in assay [14], in assay [15], in assay [16], in assay [17] and in assay [18] was more than 100 µM throughout. Besides, the TGI in [19] and in assay [20] was more than 100 µM in each case.
On to `O=C1C(Cl)=C(N2CCN(c3ccccn3)CC2)C(=O)c2ncccc21`, for which the TGI in assay [1] was 25.6 µM; in [2], 3.17 µM; in [3], 9.93 µM; in assay [4] it was 4.79 µM; in assay [5], 25 µM; in [6], 5.7 µM. Besides, the TGI in assay [7] is 4.01 µM; in assay [8], 21.8 µM; in [9], 3.14 µM; in [10], 20.6 µM; in assay [11], 3.29 µM; in [12], 3.3 µM. For the same compound, the TGI in assay [13] was 3.21 µM; in assay [14] it was 4.22 µM; in [15], 3.21 µM; in assay [16] it was 18.2 µM; in assay [17], 5.47 µM; in assay [18], 3.12 µM. Also, the TGI in [19] turned out to be 2.77 µM; in [20] it was 3.16 µM.
As for `O=C(CCOS(=O)(=O)CF)N1CCN(C(=O)CCOS(=O)(=O)CF)CC1`, the TGI in assay [1] is more than 100 µM; in [2], more than 100 µM; in assay [3], more than 100 µM; in assay [4] it was 29.6 µM; in assay [5], more than 100 µM; in assay [6], more than 46.4 µM. Moreover, the TGI in [7] was more than 100 µM; in assay [8], more than 100 µM; in [9], more than 100 µM; in assay [10] it was more than 82.5 µM; in assay [11], more than 100 µM; in assay [12], more than 100 µM. For the same compound, the TGI in assay [13], in [14], in assay [15], in assay [16], in assay [17] and in assay [18] was more than 100 µM in each case. For the same compound, the TGI in assay [19] and in assay [20] was more than 100 µM each time.
